Data: ChEMBL document CHEMBL5154787 (J Med Chem, 2022)

How the values were obtained:
[1] = Metabolic stability in mouse liver microsomes assessed as parent compound remaining at 0.5 uM incubated for 10 mins in presence of NADPH by LC-MS/MS analysis; type: ADME, Microsome; details: liver microsomes, read-out: Stability
[2] = biological target: T1, AP2-associated protein kinase 1 (Homo sapiens, UniProt Q2M2I8); assay: Inhibition of bacterially expressed GST-Xa-tagged human AAK1 using 5-FAM-labelled Aha-KEEQSQITSQVTGQIGWR-NH2 peptide as substrate incubated for 3 hrs in presence of ATP by electrophoretic analysis
T1 sequence (Q2M2I8 whole entry): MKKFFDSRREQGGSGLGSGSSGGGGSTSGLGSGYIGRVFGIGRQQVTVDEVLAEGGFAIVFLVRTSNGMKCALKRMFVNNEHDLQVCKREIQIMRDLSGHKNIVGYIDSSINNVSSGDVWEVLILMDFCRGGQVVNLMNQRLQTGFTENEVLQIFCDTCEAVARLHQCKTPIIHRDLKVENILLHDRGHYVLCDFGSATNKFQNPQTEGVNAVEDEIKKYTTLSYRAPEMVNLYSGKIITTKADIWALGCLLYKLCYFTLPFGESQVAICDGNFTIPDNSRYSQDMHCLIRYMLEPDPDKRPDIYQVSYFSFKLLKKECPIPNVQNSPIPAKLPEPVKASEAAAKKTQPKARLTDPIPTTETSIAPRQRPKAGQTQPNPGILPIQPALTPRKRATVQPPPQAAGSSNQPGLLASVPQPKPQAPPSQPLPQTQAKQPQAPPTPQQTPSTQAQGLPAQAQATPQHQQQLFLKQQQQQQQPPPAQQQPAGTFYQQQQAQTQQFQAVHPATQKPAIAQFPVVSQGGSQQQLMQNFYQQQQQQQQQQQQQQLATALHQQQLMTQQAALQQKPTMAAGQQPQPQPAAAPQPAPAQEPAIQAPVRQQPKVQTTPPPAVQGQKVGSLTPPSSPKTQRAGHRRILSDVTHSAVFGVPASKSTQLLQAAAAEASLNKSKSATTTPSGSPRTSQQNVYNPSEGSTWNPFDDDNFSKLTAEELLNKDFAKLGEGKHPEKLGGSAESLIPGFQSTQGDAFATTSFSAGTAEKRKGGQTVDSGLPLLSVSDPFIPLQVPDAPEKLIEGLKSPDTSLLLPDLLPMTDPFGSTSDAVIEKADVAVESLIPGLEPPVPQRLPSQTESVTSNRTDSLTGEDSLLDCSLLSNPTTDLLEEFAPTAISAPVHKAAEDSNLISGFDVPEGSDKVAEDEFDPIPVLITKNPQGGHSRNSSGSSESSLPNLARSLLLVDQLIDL

[3] = biological target: MAP kinase-interacting serine/threonine-protein kinase 2 (Homo sapiens, UniProt Q9HBH9); assay: Inhibition of MNK2 (unknown origin)
Sequence of MAP kinase-interacting serine/threonine-protein kinase 2 (Q9HBH9 whole entry): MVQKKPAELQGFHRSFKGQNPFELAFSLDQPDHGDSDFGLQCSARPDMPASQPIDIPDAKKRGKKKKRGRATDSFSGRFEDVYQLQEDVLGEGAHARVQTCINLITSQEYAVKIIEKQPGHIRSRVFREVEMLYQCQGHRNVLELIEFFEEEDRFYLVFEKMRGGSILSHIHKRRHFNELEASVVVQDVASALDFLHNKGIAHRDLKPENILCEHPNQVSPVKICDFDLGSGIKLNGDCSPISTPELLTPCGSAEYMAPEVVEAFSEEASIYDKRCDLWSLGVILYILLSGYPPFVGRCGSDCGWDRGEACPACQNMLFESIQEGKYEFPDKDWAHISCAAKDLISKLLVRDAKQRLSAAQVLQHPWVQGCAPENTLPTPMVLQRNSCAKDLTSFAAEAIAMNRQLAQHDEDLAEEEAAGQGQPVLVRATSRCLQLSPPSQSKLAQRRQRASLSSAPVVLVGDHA

[4] = Cardiotoxicity in aortic ring (unknown origin) assessed as relaxation of phenylephrine induced aortic ring contraction at 10 uM incubated for 1 hr; type: toxicity, tissue-based, Aorta; design: scale not given: the % may be the effect or the level left; details: human
[5] = Metabolic stability in rat liver microsomes assessed as parent compound remaining at 0.5 uM incubated for 10 mins in presence of NADPH by LC-MS/MS analysis; type: ADME, Microsome; details: read-out: Stability
[6] = biological target: Rho-associated protein kinase 2 (Homo sapiens, UniProt O75116); assay: Inhibition of ROCK2 (unknown origin)
Sequence of Rho-associated protein kinase 2 (O75116 whole entry): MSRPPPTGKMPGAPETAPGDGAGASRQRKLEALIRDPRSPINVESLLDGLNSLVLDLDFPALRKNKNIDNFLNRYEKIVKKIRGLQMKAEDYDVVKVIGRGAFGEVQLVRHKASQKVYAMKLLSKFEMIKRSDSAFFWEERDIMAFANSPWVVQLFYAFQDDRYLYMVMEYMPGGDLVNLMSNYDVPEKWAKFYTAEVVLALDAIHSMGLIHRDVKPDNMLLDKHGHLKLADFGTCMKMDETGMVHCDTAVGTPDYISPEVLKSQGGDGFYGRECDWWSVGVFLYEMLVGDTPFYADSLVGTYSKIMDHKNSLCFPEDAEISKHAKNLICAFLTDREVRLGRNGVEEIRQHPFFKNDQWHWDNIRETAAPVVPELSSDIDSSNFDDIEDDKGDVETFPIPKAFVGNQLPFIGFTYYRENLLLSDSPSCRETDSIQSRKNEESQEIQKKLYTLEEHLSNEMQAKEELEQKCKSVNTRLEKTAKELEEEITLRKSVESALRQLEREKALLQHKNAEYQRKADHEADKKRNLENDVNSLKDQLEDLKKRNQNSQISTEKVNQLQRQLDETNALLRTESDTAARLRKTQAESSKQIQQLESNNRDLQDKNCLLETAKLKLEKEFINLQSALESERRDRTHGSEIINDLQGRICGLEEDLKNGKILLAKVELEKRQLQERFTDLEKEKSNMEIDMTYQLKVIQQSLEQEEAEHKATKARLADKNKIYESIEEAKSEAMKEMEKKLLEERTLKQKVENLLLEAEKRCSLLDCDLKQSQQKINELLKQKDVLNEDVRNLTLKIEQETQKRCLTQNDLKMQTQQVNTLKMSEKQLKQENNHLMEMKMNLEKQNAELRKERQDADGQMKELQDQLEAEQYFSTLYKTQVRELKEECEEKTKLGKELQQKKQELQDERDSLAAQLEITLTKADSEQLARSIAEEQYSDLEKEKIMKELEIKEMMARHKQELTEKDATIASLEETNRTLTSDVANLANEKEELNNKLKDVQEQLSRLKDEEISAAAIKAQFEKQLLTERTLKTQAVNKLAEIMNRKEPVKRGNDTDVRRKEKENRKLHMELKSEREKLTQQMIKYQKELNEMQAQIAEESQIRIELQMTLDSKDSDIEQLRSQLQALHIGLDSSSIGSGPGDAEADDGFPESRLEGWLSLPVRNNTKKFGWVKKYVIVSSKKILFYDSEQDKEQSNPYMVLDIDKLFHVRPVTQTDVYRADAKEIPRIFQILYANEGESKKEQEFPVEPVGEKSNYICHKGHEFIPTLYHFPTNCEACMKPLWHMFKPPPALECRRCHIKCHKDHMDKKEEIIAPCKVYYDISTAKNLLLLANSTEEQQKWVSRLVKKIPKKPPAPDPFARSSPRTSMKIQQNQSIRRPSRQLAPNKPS

Cytochrome P450 3A4 = Cytochrome P450 3A4 (Homo sapiens, UniProt P08684); assay: Inhibition of CYP3A4 (unknown origin) incubated for 10 mins in presence of NADPH by LC-MS/MS analysis; type: ADME
Sequence of Cytochrome P450 3A4 (P08684 whole entry): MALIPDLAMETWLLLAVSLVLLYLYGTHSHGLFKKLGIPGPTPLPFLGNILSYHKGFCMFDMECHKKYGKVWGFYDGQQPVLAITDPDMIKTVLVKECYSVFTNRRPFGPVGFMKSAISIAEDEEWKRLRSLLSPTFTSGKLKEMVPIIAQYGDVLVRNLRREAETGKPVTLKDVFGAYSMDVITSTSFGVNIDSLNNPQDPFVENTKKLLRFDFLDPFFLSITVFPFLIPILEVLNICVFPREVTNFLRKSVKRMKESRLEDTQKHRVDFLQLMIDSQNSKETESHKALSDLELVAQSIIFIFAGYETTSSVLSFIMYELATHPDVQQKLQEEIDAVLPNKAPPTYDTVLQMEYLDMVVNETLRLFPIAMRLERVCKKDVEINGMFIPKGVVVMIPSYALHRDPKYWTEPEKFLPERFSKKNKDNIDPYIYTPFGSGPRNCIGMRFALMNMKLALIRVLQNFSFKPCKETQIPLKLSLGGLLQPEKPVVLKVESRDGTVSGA

[7] = biological target: AP2-associated protein kinase 1 (Mus musculus, UniProt Q3UHJ0); assay: Displacement of 3H-LP-927443 from AAK1 in C57BL6 mouse brain homogenate assessed as inhibition constant incubated for 1 hr by liquid scintillation counter analysis; type: tissue-based
Sequence of AP2-associated protein kinase 1 (Mus musculus, UniProt Q3UHJ0) (Q3UHJ0 whole entry): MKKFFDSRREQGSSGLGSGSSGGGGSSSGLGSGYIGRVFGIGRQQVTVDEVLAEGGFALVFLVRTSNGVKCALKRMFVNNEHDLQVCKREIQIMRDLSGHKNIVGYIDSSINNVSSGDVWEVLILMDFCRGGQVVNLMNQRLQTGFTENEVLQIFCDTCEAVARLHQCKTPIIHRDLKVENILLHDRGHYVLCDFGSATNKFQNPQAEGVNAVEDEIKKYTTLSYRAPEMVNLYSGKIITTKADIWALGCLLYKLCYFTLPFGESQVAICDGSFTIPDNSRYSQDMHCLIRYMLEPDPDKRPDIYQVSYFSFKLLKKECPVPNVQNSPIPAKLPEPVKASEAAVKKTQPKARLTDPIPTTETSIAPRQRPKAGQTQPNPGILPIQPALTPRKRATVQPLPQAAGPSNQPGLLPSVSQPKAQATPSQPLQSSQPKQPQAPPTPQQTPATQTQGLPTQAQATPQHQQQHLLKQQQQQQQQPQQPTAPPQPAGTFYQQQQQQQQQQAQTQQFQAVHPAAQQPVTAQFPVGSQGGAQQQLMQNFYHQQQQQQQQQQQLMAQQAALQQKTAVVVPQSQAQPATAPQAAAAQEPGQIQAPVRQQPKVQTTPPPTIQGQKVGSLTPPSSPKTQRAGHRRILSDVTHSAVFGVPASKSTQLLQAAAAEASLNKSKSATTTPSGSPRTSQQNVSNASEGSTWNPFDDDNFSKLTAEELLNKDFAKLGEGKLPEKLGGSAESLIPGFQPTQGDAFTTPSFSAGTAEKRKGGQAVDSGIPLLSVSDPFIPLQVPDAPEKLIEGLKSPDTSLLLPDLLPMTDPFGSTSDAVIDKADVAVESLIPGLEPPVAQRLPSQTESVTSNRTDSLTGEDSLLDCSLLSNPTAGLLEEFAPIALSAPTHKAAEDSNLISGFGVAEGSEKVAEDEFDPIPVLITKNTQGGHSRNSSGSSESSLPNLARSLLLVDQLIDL

[8] = Metabolic stability in human liver microsomes assessed as parent compound remaining at 0.5 uM incubated for 10 mins in presence of NADPH by LC-MS/MS analysis; type: ADME, Microsome; details: read-out: Stability
[9] = biological target: Dual specificity protein kinase CLK1 (Homo sapiens, UniProt P49759); assay: Inhibition of CLK1 (unknown origin)
[10] = biological target: Dual specificity protein kinase CLK4 (Homo sapiens, UniProt Q9HAZ1); assay: Inhibition of CLK4 (unknown origin)
[11] = Ratio of drug concentration in spinal cord to plasma in STZ-induced diabetic peripheral neuropathic mechanical allodynia in overnight fasted Sprague-Dawley rat at 1 mg/kg, po measured at 5.5 hrs post dose; type: ADME, organism-based
Rattus norvegicus [12] = assay: Analgesic activity in CCI induced thermal hyperalgesia in Sprague-Dawley rat assessed as reduction in thermal hyperalgesia by measuring paw withdrawal latency at 1 mg/kg, po measured after 5 hrs by Hargreaves test relative to control; type: functional; design: scale not given: the % may be the effect or the level left
[13] = Drug concentration in CCI induced thermal hyperalgesia in Sprague-Dawley rat spinal cord at 1 mg/kg, po measured after 5.5 hrs; type: ADME, organism-based; details: read-out: Ct
[14] = Ratio of drug concentration in brain to plasma in CCI induced thermal hyperalgesia in Sprague-Dawley rat at 1 mg/kg, po measured at 5.5 hrs post dose; type: ADME, organism-based
[15] = Plasma concentration in CCI induced thermal hyperalgesia in Sprague-Dawley rat at 1 mg/kg, po measured at 5.5 hrs post dose; type: ADME, organism-based
[16] = Brain concentration in STZ-induced diabetic peripheral neuropathic mechanical allodynia in overnight fasted Sprague-Dawley rat at 1 mg/kg, po measured at 5.5 hrs post dose; type: ADME, organism-based; details: read-out: Ct
[17] = biological target: T1, AP2-associated protein kinase 1; assay: Inhibition of full length human AAK1 expressed in HEK293F cells assessed as suppression of AP2 phosphorylation measured after 3 hrs by Western blot analysis based cellular assay; type: cell-based
[18] = Ratio of drug concentration in brain to plasma in STZ-induced diabetic peripheral neuropathic mechanical allodynia in overnight fasted Sprague-Dawley rat at 1 mg/kg, po measured at 5.5 hrs post dose; type: ADME, organism-based
[19] = Ratio of drug concentration in spinal cord to plasma in CCI induced thermal hyperalgesia in Sprague-Dawley rat at 1 mg/kg, po measured at 5.5 hrs post dose; type: ADME, organism-based
[20] = Brain concentration in CCI induced thermal hyperalgesia in Sprague-Dawley rat at 1 mg/kg, po measured at 5.5 hrs post dose; type: ADME, organism-based; details: read-out: Ct
Rattus norvegicus [21] = assay: Analgesic activity in STZ-induced diabetic peripheral neuropathic mechanical allodynia in overnight fasted Sprague-Dawley rat assessed as reduction in pain response by measuring paw withdrawal latency at 1 mg/kg, po measured after 5 hrs by Hargreaves test relative to control; type: functional; design: scale not given: the % may be the effect or the level left
[22] = Drug concentration in STZ-induced diabetic peripheral neuropathic mechanical allodynia in overnight fasted Sprague-Dawley rat spinal cord at 1 mg/kg, po measured after 5.5 hrs; type: ADME, organism-based; details: read-out: Ct
[23] = Ratio of drug concentration in brain to plasma in Sprague-Dawley rat at 3 mg/kg, po measured at 2 hrs post dose; type: ADME, organism-based
[24] = Plasma concentration in STZ-induced diabetic peripheral neuropathic mechanical allodynia in overnight fasted Sprague-Dawley rat at 1 mg/kg, po measured at 5.5 hrs post dose; type: ADME, organism-based
[25] = Inhibition of CK2A2 (unknown origin); design: species or system Homo sapiens
Myotonin-protein kinase = Myotonin-protein kinase (Homo sapiens, UniProt Q09013); assay: Inhibition of DMPK1 (unknown origin)
[26] = biological target: BMP-2-inducible protein kinase (Homo sapiens, UniProt Q9NSY1); assay: Inhibition of BIKE (unknown origin)
[27] = biological target: Death-associated protein kinase 3 (Homo sapiens, UniProt O43293); assay: Inhibition of DAPK3 (unknown origin)
Sequence of Death-associated protein kinase 3 (O43293 whole entry): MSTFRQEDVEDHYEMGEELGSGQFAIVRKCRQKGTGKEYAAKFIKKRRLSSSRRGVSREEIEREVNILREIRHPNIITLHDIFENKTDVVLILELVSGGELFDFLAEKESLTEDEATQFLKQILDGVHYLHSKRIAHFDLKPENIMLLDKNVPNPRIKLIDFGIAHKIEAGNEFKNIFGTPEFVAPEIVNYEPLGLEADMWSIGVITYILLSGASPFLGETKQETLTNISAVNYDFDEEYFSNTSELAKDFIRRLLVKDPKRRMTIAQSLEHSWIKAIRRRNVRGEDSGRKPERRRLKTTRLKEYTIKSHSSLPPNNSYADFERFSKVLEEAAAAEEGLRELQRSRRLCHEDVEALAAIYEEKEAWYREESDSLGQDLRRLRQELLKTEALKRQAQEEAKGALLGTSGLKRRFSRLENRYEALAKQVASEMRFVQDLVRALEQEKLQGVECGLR

[28] = biological target: T2, Cyclin-G-associated kinase (Homo sapiens, UniProt O14976); assay: Inhibition of GAK (unknown origin)
T2 sequence (O14976 whole entry): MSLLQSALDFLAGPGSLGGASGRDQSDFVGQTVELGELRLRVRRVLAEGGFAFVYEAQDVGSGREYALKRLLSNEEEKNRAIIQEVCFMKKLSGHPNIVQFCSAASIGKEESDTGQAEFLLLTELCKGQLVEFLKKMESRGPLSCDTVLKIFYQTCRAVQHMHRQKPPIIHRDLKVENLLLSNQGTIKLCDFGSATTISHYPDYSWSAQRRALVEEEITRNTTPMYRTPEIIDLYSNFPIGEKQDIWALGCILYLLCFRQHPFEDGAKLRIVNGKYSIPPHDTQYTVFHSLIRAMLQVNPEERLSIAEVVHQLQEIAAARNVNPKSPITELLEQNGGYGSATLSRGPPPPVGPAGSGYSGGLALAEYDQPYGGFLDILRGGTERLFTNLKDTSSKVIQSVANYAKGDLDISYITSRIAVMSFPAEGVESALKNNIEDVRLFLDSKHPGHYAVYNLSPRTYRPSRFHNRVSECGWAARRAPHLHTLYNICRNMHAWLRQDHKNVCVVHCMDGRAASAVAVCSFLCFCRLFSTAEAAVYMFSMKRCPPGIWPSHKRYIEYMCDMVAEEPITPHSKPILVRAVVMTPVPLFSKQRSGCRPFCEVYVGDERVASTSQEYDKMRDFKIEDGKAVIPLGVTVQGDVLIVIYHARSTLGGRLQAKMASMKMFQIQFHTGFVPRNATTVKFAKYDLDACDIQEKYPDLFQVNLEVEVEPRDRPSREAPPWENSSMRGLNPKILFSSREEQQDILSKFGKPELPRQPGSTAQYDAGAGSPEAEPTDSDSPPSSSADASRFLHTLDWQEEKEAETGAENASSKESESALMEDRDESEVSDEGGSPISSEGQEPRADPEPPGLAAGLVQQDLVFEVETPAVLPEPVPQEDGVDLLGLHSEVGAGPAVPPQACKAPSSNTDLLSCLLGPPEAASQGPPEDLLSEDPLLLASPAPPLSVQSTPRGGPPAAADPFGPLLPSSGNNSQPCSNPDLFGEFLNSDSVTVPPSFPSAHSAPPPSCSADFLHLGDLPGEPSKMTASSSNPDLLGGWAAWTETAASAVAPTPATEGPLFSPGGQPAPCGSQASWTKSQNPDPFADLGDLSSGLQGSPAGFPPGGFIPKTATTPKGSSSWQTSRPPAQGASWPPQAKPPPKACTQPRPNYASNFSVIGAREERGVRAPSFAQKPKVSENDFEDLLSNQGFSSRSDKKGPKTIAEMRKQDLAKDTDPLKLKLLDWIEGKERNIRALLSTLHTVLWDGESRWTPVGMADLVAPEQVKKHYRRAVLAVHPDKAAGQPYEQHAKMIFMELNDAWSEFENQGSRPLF

[29] = Inhibition of MEK (unknown origin); design: species or system Homo sapiens
[30] = biological target: Tyrosine-protein kinase receptor TYRO3 (Homo sapiens, UniProt Q06418); assay: Inhibition of TYRO3 (unknown origin)
[31] = biological target: T3, Homeodomain-interacting protein kinase 4 (Homo sapiens, UniProt Q8NE63); assay: Inhibition of HIPK4 (unknown origin)
T3 sequence (Q8NE63 whole entry): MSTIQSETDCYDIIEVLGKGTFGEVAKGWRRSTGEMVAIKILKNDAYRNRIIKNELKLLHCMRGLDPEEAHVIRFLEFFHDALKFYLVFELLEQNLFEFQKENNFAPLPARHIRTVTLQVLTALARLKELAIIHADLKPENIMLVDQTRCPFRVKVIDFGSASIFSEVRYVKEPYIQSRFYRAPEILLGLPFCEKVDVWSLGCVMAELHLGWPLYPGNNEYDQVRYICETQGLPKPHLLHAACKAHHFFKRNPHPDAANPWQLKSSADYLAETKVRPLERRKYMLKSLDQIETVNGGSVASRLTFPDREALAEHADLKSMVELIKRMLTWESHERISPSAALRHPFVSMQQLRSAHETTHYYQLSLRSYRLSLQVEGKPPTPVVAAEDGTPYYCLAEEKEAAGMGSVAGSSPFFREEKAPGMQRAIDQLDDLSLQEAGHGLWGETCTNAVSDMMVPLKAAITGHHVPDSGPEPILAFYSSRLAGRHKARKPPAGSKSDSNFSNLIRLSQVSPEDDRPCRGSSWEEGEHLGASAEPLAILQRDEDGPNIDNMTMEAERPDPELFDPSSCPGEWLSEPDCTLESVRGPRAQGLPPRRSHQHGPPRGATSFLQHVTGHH

[32] = biological target: Death-associated protein kinase 1 (Homo sapiens, UniProt P53355); assay: Inhibition of DAPK1 (unknown origin)
[33] = biological target: MAP kinase-interacting serine/threonine-protein kinase 1 (Homo sapiens, UniProt Q9BUB5); assay: Inhibition of MNK1 (unknown origin)
[34] = biological target: Myosin light chain kinase 2, skeletal/cardiac muscle (Homo sapiens, UniProt Q9H1R3); assay: Inhibition of MYLK2 (unknown origin)
[35] = biological target: Serine/threonine-protein kinase tousled-like 1 (Homo sapiens, UniProt Q9UKI8); assay: Inhibition of TLK1 (unknown origin)
[36] = biological target: Tyrosine-protein kinase JAK2 (Homo sapiens, UniProt O60674); assay: Inhibition of JAK2 (unknown origin)
[37] = biological target: Serine/threonine-protein kinase N2 (Homo sapiens, UniProt Q16513); assay: Inhibition of PKN2 (unknown origin)
[38] = biological target: Citron Rho-interacting kinase (Homo sapiens, UniProt O14578); assay: Inhibition of CRIK (unknown origin)
[39] = biological target: Dual specificity mitogen-activated protein kinase kinase 1 (Homo sapiens, UniProt Q02750); assay: Inhibition of MEK1/MAP2K1 (unknown origin)
[40] = biological target: STE20/SPS1-related proline-alanine-rich protein kinase (Homo sapiens, UniProt Q9UEW8); assay: Inhibition of STLK3 (unknown origin)
[41] = biological target: Serine/threonine-protein kinase tousled-like 2 (Homo sapiens, UniProt Q86UE8); assay: Inhibition of TLK2 (unknown origin)

SMILES	remaining at 10 min, 0.5 µM [1]	IC50 [2]	IC50 [3]	Activity [4]	remaining at 10 min, 0.5 µM [5]	IC50 [6]	IC50 (Cytochrome P450 3A4)	Ki [7]	remaining at 10 min, 0.5 µM [8]	IC50 [17]	IC50 [26]	IC50 [27]	IC50 [31]	IC50 [32]	further results
COC(=O)Nc1cc(-c2cnc(OC[C@@](C)(N)CC(C)C)c(C#N)c2)ccn1	86%	1 nM	900 nM	95%	80%	1100 nM	2200 nM	0.15 nM	95%						IC50 [9]: 1700 nM; IC50 [10]: 590 nM
CC(=O)Nc1cc(-c2ccc(OC[C@@H](N)CC(C)C)c(F)c2)ccn1	79%	2.6 nM			80%		8900 nM	0.52 nM	90%	1.6 nM					Kp at 5.5 h [11]: 0.8; Activity (Rattus norvegicus [12]): 56%; concentration at 5.5 h [13]: 270 nM; Kp at 5.5 h [14]: 1.2; concentration at 5.5 h [15]: 270 nM; concentration at 5.5 h [16]: 190 nM; Kp at 5.5 h [18]: 1; Kp at 5.5 h [19]: 1; concentration at 5.5 h [20]: 320 nM; Activity (Rattus norvegicus [21]): 65%; concentration at 5.5 h [22]: 150 nM; Kp at 2 h [23]: 1.5; concentration at 5.5 h [24]: 190 nM
COC(=O)Nc1cc(-c2ccc(OC[C@@](C)(N)CC(C)C)c(C(F)F)n2)ccn1	84%	0.8 nM	120 nM	89%	91%	140 nM	> 20000 nM	0.07 nM	77%		20 nM	1100 nM	650 nM	560 nM	IC50 [25]: 680 nM; IC50 (Myotonin-protein kinase): 1500 nM; IC50 [28]: 160 nM; IC50 [29]: 610 nM; IC50 [30]: 1300 nM
COC(=O)Nc1cc(-c2ccc(OC[C@@](C)(N)CC(C)C)c(Cl)n2)ccn1	72%	0.5 nM	1200 nM	74%	99%		> 20000 nM	0.17 nM	93%	1.2 nM	30 nM	1100 nM	1100 nM	810 nM	IC50 [33]: 120 nM; IC50 [34]: 650 nM; IC50 [35]: 1200 nM; IC50 [36]: 1600 nM; IC50 [37]: 140 nM; IC50 [38]: 90 nM; IC50 [39]: 1200 nM; IC50 [40]: 1400 nM; IC50 [41]: 1400 nM
